Experiments:
Type in all cases: binding
CraCRY [1] = biological target: T1, CraCRY (Chlamydomonas reinhardtii, UniProt A8J8W0); assay: UV/vis absorption after incubation and gel filtration; conditions: synthetic 8-HDF, 100 µM with 20 µM protein, on ice; secondary pocket, antenna chromophore; protein holds FAD
T1 construct: gene CHLRE_06g278251v5; lacks C-terminal tail (497-595); His-tagged, pET-28a(+), E. coli BL21(DE3); TALON and heparin purified
T1 sequence (A8J8W0 1-496): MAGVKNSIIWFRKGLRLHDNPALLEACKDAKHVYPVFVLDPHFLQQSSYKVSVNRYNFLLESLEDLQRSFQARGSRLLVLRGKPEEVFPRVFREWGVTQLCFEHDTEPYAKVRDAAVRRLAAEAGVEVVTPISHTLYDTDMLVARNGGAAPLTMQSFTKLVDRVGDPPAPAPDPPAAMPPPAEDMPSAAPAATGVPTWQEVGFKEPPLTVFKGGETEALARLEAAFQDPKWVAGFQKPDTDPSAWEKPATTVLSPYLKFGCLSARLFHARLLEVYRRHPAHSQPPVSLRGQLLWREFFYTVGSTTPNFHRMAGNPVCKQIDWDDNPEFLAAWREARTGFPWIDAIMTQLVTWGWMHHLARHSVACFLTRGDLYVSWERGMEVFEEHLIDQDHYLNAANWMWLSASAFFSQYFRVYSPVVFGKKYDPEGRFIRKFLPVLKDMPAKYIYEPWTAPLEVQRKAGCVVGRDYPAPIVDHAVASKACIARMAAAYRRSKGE

Xl64 [2] = biological target: T2, Xl64 (Xenopus laevis, UniProt Q9I910); assay: as above; conditions: synthetic 8-HDF, 100 µM with 20 µM protein, on ice; secondary pocket, antenna chromophore; protein holds FAD
T2 construct: gene Xl64phr; recombinant, pET-28a(+), E. coli C41(DE3)/pLysS
T2 sequence (Q9I910 1-526): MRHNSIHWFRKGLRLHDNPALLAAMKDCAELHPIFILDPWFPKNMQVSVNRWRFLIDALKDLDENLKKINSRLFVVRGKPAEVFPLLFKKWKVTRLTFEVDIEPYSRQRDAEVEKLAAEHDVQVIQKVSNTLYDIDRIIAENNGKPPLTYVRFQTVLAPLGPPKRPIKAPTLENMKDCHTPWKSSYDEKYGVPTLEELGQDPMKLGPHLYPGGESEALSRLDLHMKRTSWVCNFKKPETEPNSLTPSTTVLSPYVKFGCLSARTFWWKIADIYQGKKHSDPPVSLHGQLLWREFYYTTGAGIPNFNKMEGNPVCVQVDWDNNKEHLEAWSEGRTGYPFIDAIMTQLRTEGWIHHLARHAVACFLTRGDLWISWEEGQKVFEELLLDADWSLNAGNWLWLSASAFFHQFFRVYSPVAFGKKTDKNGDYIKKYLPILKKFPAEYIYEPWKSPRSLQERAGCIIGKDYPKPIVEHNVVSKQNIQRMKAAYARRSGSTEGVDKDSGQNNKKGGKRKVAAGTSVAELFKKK

Xl64 [3] = biological target: T2, Xl64; assay: UV/vis spectroscopy of purified holoprotein; xanthine/xanthine oxidase redox titration; conditions: co-purified FAD; pH 7.0, Safranin T reference
CraCRY [4] = biological target: T1, CraCRY; assay: as above; conditions: co-purified FAD; pH 7.0, Safranin T reference
At64 [5] = biological target: T3, At64 (Arabidopsis thaliana, UniProt O48652); assay: as above; conditions: co-purified FAD; pH 7.0, Safranin T reference
T3 construct: gene UVR3; recombinant, pET-28a(+), E. coli C41(DE3)/pLysS
T3 sequence (O48652 20-556): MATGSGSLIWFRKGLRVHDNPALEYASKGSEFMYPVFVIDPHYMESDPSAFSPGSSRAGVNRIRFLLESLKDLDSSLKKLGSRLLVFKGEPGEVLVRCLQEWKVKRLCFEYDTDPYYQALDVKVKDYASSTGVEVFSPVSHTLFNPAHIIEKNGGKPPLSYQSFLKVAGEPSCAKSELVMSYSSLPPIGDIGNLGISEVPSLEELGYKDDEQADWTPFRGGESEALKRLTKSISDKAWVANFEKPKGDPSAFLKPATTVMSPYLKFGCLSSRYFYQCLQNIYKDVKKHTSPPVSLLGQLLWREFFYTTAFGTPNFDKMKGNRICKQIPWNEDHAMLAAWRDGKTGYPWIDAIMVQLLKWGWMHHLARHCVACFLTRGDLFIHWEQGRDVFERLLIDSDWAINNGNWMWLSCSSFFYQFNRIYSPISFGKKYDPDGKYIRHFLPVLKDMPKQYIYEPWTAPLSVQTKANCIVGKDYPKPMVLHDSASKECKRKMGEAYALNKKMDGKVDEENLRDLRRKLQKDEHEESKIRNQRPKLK

At64 [6] = biological target: T4, At64 (Arabidopsis thaliana, UniProt O48652, DEL46-53); assay: as above; conditions: At64-ΔExLoop, extended loop Ser46 to Pro53 deleted; co-purified FAD; pH 7.0, Safranin T reference
T4 construct: gene UVR3; recombinant, pET-28a(+), E. coli C41(DE3)/pLysS
T4 sequence (O48652 with tags, fused parts or gaps DEL46-53): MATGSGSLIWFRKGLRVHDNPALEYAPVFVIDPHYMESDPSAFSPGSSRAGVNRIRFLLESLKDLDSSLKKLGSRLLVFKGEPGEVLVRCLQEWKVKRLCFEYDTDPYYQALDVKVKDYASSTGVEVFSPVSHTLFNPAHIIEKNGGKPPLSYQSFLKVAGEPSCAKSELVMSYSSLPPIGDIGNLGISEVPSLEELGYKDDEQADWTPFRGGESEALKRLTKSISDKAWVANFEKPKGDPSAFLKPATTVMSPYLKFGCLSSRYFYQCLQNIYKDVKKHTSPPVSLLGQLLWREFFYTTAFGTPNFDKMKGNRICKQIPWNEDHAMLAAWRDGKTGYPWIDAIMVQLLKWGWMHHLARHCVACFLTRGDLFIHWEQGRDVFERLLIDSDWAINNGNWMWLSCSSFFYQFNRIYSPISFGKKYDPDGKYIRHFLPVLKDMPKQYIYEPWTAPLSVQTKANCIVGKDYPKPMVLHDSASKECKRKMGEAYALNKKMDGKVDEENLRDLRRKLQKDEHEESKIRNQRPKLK

**Q.** For `O=c1nc2n(C[C@H](O)[C@H](O)[C@H](O)CO)c3cc(O)ccc3cc-2c(=O)[nH]1` [8-HDF, 8-hydroxy-7,8-didemethyl-5-deazariboflavin], which “absorption maximum of the complex” value (CraCRY [1]) is on record?
**A.** 448 nm

**Q.** What about the “absorption maximum of the complex” value (Xl64 [2]) of the same molecule?
**A.** 441 nm

**Q.** Which results are given for `Cc1cc2nc3c(=O)[nH]c(=O)nc-3n(C[C@H](O)[C@H](O)[C@H](O)COP(=O)(O)OP(=O)(O)OC[C@H]3O[C@@H](n4cnc5c(N)ncnc54)[C@H](O)[C@@H]3O)c2cc1C` [FAD, flavin adenine dinucleotide]?
**A.** UV/vis spectroscopy of purified holoprotein; xanthine/xanthine oxidase redox tit (Xl64 [3]): the Em,FAD values of the tested proteins (Xl64, At64, and CraCRY) were identical; UV/vis spectroscopy of purified holoprotein; xanthine/xanthine oxidase redox tit (CraCRY [4]): the Em,FAD values of the tested proteins (Xl64, At64, and CraCRY) were identical; UV/vis spectroscopy of purified holoprotein; xanthine/xanthine oxidase redox tit (At64 [5]): the Em,FAD values of the tested proteins (Xl64, At64, and CraCRY) were identical; UV/vis spectroscopy of purified holoprotein; xanthine/xanthine oxidase redox tit (At64 [6]): the deletion of the extended loop did not affect the FAD binding site

Source: article PMC10551024, “A deazariboflavin chromophore kinetically stabilizes reduced FAD state in a bifunctional cryptochrome” (Scientific Reports, 2023)
